# How the values were obtained:
# E6E7/Ras cells = experiment: Extracellular acidification rate (ECAR), Seahorse XF24; type: cell-based, mouse; settings: added at point B with additional glucose
# Method: FIG. 6 illustrates the reduction of extracellular acidification rate (ECAR) by prodrugs AT-N4-001 and AT-N4-002. (A) ECAR was measured using a Seahorse XF24 instrument. At time point A glucose was added to the cultures. At time point B the indicated drugs were added with additional glucose. At time point C 2-deoxyglucose was added to block glycolysis. (B) Bar graph of ECAR at the time point indicated as Rate 8 in A.
# AT-N4-001 and AT-N4-002 should each release two molecules of DCA and one molecule of oxamate. Both DCA and oxamate are expected to reduce cellular lactate production. Therefore, we examined the changes in lactate after treatment of E6E7/Ras cells with the prodrugs. E6E7/Ras cells were seeded into 100 mm dishes and the next day treated with 5 mM AT-N4-001, 5 mM AT-N4-002, 5 mM DCA plus 5 mM oxamate, or 5 mM DCA alone. Culture medium was collected after 4 hours of treatment and lactate levels were determined (FIG. 5). […] To confirm the effects of these compounds on lactate production, the extra cellular acidification rate (ECAR) was measured using a Seahorse XF24 Extracellular Flux analyzer. Since lactate is transported from cells together with a proton, acidification of the culture medium (ECAR) is an estimate of lactate production and the glycolytic rate of cells. In the experiment shown in FIG. 6A, ECAR measurements were initiated in the absence of glucose. […]
# HPV+ HNSCC tumor = experiment: Tumor growth and survival with chemoradiation in RAG-1 immune-deficient mice; type: in vivo, RAG-1 mice; settings: in combination with chemoradiation
# Method: FIG. 9 illustrates the effect of AT-N4-002 prodrug on tumor growth (A) and animal survival (B) in RAG-1 immune-deficient mice. Treatment conditions are the same as those described in FIG. 7.
# To examine whether the prodrug AT-N4-002 also requires an immune response to control tumor growth, experiments were performed in RAG-1 mice. Based on our previous experience with DCA, we hypothesized that survival and tumor clearance would not be observed in these immune deficient mice following treatment with AT-N4-002. […] These immune-independent effects of AT-N4-002 on tumor growth in immune-deficient mice could be due to direct effects on tumor cell growth or cell death as described in Example 9, below.
smiles,measurement,setting,value
"NC(=O)C(=O)OCC(COC(=O)C(Cl)Cl)OC(=O)C(Cl)Cl (stereo not drawn) [AT-N4-002, 3-(2-amino-2-oxoacetoxy)propane-1,2-diyl bis(2,2-dichloroacetate)]",increase in ECAR after glucose addition (FIG. 6),E6E7/Ras cells,completely blocked
same,survival in RAG-1 mice (FIG. 9B),HPV+ HNSCC tumor,lengthened survival
same,tumor growth in RAG-1 mice (FIG. 9A),HPV+ HNSCC tumor,slowed tumor growth
